# Laboratory results from US7176261B2, “Angiotensin-(1-7) eluting polymer-coated medical device to reduce restenosis and improve endothelial cell function” (Medtronic, Inc., priority 2004, dated 2007).
# Marks after values point to notes of the source that are not given here.
# Key:
# ACE = molecular target: T1, ACE (Homo sapiens, UniProt P12821); details: after six months of treatment, more than 2,000 patients; cited from earlier work
# T1 construct: host or cells: patients (in vivo, endogenous enzyme)
# T1 sequence (P12821 30-1306): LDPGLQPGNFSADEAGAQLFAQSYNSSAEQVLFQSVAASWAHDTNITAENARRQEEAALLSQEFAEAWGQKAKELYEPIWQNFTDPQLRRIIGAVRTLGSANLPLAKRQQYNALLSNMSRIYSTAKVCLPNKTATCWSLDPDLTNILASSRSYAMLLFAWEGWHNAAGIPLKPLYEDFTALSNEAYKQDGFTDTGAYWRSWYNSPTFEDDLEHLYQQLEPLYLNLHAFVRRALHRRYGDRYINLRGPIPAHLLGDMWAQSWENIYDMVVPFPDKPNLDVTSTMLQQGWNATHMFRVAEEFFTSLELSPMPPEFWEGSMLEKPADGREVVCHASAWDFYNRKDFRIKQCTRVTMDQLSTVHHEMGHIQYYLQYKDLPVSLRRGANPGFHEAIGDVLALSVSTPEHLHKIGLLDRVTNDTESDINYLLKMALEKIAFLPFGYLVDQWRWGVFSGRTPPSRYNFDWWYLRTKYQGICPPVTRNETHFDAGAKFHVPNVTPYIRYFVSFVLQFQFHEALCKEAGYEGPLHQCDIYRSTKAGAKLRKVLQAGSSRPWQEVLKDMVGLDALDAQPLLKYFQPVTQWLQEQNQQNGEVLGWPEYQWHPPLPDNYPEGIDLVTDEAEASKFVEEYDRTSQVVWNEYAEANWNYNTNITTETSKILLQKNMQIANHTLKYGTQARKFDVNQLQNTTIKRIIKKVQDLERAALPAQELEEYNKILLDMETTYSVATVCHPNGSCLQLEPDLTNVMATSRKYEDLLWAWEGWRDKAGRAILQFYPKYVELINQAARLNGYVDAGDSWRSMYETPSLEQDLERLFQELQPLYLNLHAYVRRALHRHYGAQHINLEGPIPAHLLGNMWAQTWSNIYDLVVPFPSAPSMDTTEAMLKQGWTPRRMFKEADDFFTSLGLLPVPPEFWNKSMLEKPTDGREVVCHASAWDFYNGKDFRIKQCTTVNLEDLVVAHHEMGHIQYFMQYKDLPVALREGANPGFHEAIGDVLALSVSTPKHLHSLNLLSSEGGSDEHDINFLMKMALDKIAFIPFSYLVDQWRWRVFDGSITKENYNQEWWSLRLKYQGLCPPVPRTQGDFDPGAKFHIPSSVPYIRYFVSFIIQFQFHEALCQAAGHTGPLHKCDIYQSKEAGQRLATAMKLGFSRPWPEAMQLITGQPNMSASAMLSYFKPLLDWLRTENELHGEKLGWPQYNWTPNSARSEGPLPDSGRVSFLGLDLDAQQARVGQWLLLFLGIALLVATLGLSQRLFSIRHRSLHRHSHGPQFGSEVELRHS
# [1] = test system: rats with uncoated stents implanted in the abdominal aorta; test: Angiotensin-(1-7) pump study in rat aorta model (uncoated stents, micropump infusion); type: in vivo
# Description: The effects of Ang-(1-7) on restenosis were studied in rats with uncoated stents implanted in the abdominal aorta with Ang-(1-7) infused by implantable micro pump. Twelve rats per group were implanted with stents and micropumps containing one of three infusion regimens for three weeks. Control rats received saline infusions and the Ang-(1-7) groups received infusion of Ang-(1-7) at 10 μg/kg/hr or 24 μg/kg/hr.
# The rats receiving 24 μg/kg/hr, however, scored lower in neointimal level and percentage stenosis (Table 1 and FIG. 7). A 27% reduction in neointimal area was seen between the control rats and those receiving 24 μg/kg/hr Ang-(1-7). Ang-(1-7) has a clear beneficial effect on the restenosis rate.
# [2] = test system: smooth muscle cell proliferation; details: intravenous infusion; cited from earlier work
# [3] = Ang-(1-7) infusion 24 μg/kg/hr for three weeks
Molecule,incidence of restenosis vs placebo (ACE),difference compared to the control group in any of the parameters measured ([1]; 10 μg/kg/hr infusion),reduction in neointimal area vs control rats ([1]; 24 μg/kg/hr infusion),"endothelial function as measured in the thoracic aorta position, proximal from the stent ([1]; Ang-(1-7) infusion)","Media Area [1, 3]","Neointimal Thickness [1, 3]","Percentage Stenosis ([1]; Ang-(1-7) infusion 24 μg/kg/hr for three weeks, p = 0.016 vs. control)","Neointimal area ([1]; Ang-(1-7) infusion 24 μg/kg/hr for three weeks, p = 0.035 vs. control)",smooth muscle cell proliferation associated with balloon-catheter injury [2]
CCOC(=O)[C@H](CCc1ccccc1)N[C@H]1CCCN2CCC[C@@H](C(=O)O)N2C1=O [cilazapril],no significant differences,,,,,,,,
Asp Arg Val Tyr lie His Pro (DRVYIHP; listed as Homo sapiens) [Ang-(1-7)],,did not show any significant difference,27%,improved endothelial function,0.40 ± 0.05 mm^2,111 ± 8 µm,10.4 ± 1.0 %,0.51 ± 0.05* mm^2,inhibited
